Experimental data as given in BigSolDB 2.1.

O=[N+]([O-])c1cc([N+](=O)[O-])c(Cl)c(Cl)c1Cl
solubility (mole fraction)
Details	278.15 K	283.15 K	288.15 K	293.15 K	298.15 K	303.15 K	308.15 K	313.15 K	318.15 K	323.15 K
in 1,2-dichloroethane	0.06	0.0736	0.0895	0.108	0.13	0.155	0.185	0.219	0.258	0.301
in DMF	0.194	0.211	0.23	0.251	0.274	0.298	0.324	0.352	0.384	0.419
in DMSO	–	–	–	0.238	0.262	0.287	0.315	0.345	0.378	0.412
in NMP	0.278	0.291	0.305	0.321	0.338	0.357	0.377	0.4	0.425	0.454
in acetone	0.109	0.124	0.141	0.16	0.181	0.204	0.229	0.257	0.289	0.323
in acetonitrile	0.0401	0.0511	0.0644	0.0806	0.1	0.123	0.15	0.183	0.22	0.265
in chloroform	0.0536	0.066	0.0807	0.0982	0.118	0.141	0.169	0.201	0.237	0.279
in dichloromethane	0.0689	0.0822	0.0975	0.116	0.135	0.159	0.185	–	–	–
in ethanol	0.00235	0.00301	0.00382	0.00483	0.00611	0.00765	0.00957	0.0118	0.0146	0.0182
in ethyl acetate	0.097	0.111	0.128	0.146	0.167	0.191	0.217	0.245	0.279	0.314
in isopropanol	0.000879	0.00125	0.00174	0.00241	0.00333	0.00451	0.00603	0.00807	0.0107	0.0142
in methanol	0.00262	0.0033	0.00414	0.00519	0.00648	0.00806	0.00985	0.0121	0.0149	0.0182
in n-butanol	0.00175	0.00238	0.0032	0.00428	0.00565	0.00752	0.00967	0.0126	0.0164	0.021
in tetrachloromethane	0.00374	0.00582	0.00891	0.0134	0.0201	0.0296	0.0425	0.0609	0.0864	0.12
in toluene	0.14	0.159	0.18	0.204	0.23	0.258	0.289	0.323	0.36	0.4
